Among the data in patent publication US9169270B2, “1-phenyl-substituted heterocyclyl derivatives and their use as prostaglandin D2 receptor modulators” (Actelion Pharmaceuticals Ltd., priority 2012, dated 2015) are IC50 values, retold here.

hCRTH2 receptor, sequence (Q9Y5Y4 whole entry, the tested form may be a part): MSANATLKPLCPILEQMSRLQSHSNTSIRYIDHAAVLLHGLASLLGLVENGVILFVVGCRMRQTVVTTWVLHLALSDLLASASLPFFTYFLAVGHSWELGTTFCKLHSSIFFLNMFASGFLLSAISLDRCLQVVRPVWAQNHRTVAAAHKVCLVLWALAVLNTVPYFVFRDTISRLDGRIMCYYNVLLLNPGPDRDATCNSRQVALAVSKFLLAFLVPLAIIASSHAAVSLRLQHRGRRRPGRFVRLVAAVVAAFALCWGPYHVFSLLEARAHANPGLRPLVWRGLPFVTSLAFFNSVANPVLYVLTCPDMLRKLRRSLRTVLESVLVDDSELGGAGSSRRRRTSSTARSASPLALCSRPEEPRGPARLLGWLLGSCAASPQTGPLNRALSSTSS

The assay addresses hCRTH2 receptor (Homo sapiens (Human), UniProt Q9Y5Y4). The experiment in a line: hCRTH2 receptor membranes radioligand (3H-PGD2) displacement assay. Particulars: hCRTH2 membrane fragments, Binding-Buffer with 0.1% BSA. The procedure: Biological Assays: Preparation of hCRTH2 Receptor Membranes and Radioligand Displacement Assay:
First, recombinant HEK293-hCRTH2 cells were detached from culture plates into 5 ml buffer A/plate (Buffer A: 5 mM Tris, 1 mM MgCl2-6H2O pH=7.4) using a rubber policeman. Cells were then transferred into centrifugation tubes and centrifuged for 5 min at 400 g. The cell pellet was resuspended in the same buffer and tubes were frozen at −80° C. Cells were thawed and membrane fragments were generated by homogenization using a polytron homogenizer (30 seconds). The membrane fragments were then centrifuged at 3000 g for 20 minutes and resuspended in buffer C (Buffer C: 75 mM Tris, 25 mM MgCl2, 250 mM Saccharose pH 7.4). Aliquots of membrane fragments were stored at −20° C.
Binding assay was performed in a final assay volume of 250 μl. First, 25 μl of test compound, previously diluted in Binding-Buffer (Binding-Buffer: 50 mM Tris-Base, 100 mM NaCl, 1 mM EDTA, 0.1% BSA (protease free), 0.01% NaN3, 10 mM MnCl2, pH 7.0) was placed into each well. […] Binding assay was started by addition of 100 μl CRTH2 membrane fragments, reaching a final concentration of 20 μg/well. For non-specific binding, PGD2 was added to the reaction mixture to […] final concentration. This assay mix was incubated for 90 minutes at room temperature and then filtered through a GF/C filter 96-well plate which was pre-soaked for 3 hours in 0.5% polyethyleneimine (PEI). The filter-wells were washed three times with ice cold Binding-Buffer. Then, 40 μl of Microscint-40 (Packard) was added to each well and the retained radioactivity quantified in a Topcount (Packard).
For `CC(C)COC(=O)N1CCc2ncsc2C1c1cc(Cl)ccc1OCC(=O)O` (racemic) [Example 98, (±)-4-(2-Carboxymethoxy-5-chloro-phenyl)-6,7-dihydro-4H-thiazolo[5,4-c]pyridine-5-carboxylic acid isobutyl ester], the IC50 (in general, the concentration that inhibits the measured activity by half) is 17.8 nM. On to `CCCCOC(=O)N1CCc2ncsc2C1c1cc(Cl)ccc1OCC(=O)O` (racemic) [Example 99, (±)-4-(2-Carboxymethoxy-5-chloro-phenyl)-6,7-dihydro-4H-thiazolo[5,4-c]pyridine-5-carboxylic acid butyl ester], for which the IC50 is 11.8 nM. In the case of `Cc1ccc(COC(=O)N2CCc3ncsc3C2c2cc(Cl)ccc2OCC(=O)O)c(C)c1` (racemic) [Example 100, (±)-4-(2-Carboxymethoxy-5-chloro-phenyl)-6,7-dihydro-4H-thiazolo[5,4-c]pyridine-5-carboxylic acid 2,4-dimethyl-benzyl ester], the IC50 came to 7.1 nM. The molecule `Cc1cccc(COC(=O)N2CCc3ncsc3C2c2cc(Cl)ccc2OCC(=O)O)c1C` (racemic) [Example 101, (±)-4-(2-Carboxymethoxy-5-chloro-phenyl)-6,7-dihydro-4H-thiazolo[5,4-c]pyridine-5-carboxylic acid 2,3-dimethyl-benzyl ester] returned an IC50 of 6.1 nM. Consider `N#Cc1ccc(OCC(=O)O)c(C2c3scnc3CCN2C(=O)OCc2ccccc2)c1` (racemic) [Example 106, (±)-4-(2-Carboxymethoxy-5-cyano-phenyl)-6,7-dihydro-4H-thiazolo[5,4-c]pyridine-5-carboxylic acid benzyl ester], for which the IC50 came to 3.4 nM.

As to `O=C(O)COc1ccc(Cl)cc1C1c2scnc2CCN1C(=O)NCCc1ccccc1` (racemic) [Example 107, (±)-[4-Chloro-2-(5-phenethylcarbamoyl-4,5,6,7-tetrahydro-thiazolo[5,4-c]pyridin-4-yl)-phenoxy]-acetic acid], the IC50 was found to be 5.7 nM. On to `O=C(O)COc1ccc(Cl)cc1C1c2scnc2CCN1C(=O)NCc1ccccc1Cl` (racemic) [Example 108, (±)-{4-Chloro-2-[5-(2-chloro-benzylcarbamoyl)-4,5,6,7-tetrahydro-thiazolo[5,4-c]pyridin-4-yl]-phenoxy}-acetic acid], for which the IC50 was determined as 8.9 nM. `CCCc1nc2c(s1)C(c1cc(Cl)ccc1OCC(=O)O)N(C(=O)OCc1ccccc1)CC2` (racemic) [Example 111, (±)-4-(2-Carboxymethoxy-5-chloro-phenyl)-2-propyl-6,7-dihydro-4H-thiazolo[5,4-c]pyridine-5-carboxylic acid benzyl ester] displayed an IC50 of 86.4 nM.

`O=C(O)COc1ccc(Cl)cc1C1c2sc(-c3ccccc3)nc2CCN1C(=O)OCc1ccccc1` (racemic) [Example 112, (±)-4-(2-Carboxymethoxy-5-chloro-phenyl)-2-phenyl-6,7-dihydro-4H-thiazolo[5,4-c]pyridine-5-carboxylic acid benzyl ester] registered an IC50 of 30.9 nM. In the case of `CS(=O)(=O)Nc1nc2c(s1)C(c1cc(Cl)ccc1OCC(=O)O)N(C(=O)OCc1ccccc1)CC2` (racemic) [Example 113, (±)-4-(2-Carboxymethoxy-5-chloro-phenyl)-2-methanesulfonylamino-6,7-dihydro-4H-thiazolo[5,4-c]pyridine-5-carboxylic acid benzyl ester], the IC50 was determined as 254 nM. Then `O=C(O)COc1ccc(Cl)cc1C1c2sc(NS(=O)(=O)C3CC3)nc2CCN1C(=O)OCc1ccccc1` (racemic) [Example 114, (±)-4-(2-Carboxymethoxy-5-chloro-phenyl)-2-cyclopropanesulfonylamino-6,7-dihydro-4H-thiazolo[5,4-c]pyridine-5-carboxylic acid benzyl ester], with 678 nM; and `O=C(O)COc1ccc(Cl)cc1C1c2sc(NC(=O)C3CC3)nc2CCN1C(=O)OCc1ccccc1` (racemic) [Example 115, (±)-4-(2-Carboxymethoxy-5-chloro-phenyl)-2-(cyclopropanecarbonyl-amino)-6,7-dihydro-4H-thiazolo[5,4-c]pyridine-5-carboxylic acid benzyl ester], with 491 nM.

Regarding `CC(=O)Nc1nc2c(s1)C(c1cc(Cl)ccc1OCC(=O)O)N(C(=O)OCc1ccccc1)CC2` (racemic) [Example 116, (±)-2-Acetylamino-4-(2-carboxymethoxy-5-chloro-phenyl)-6,7-dihydro-4H-thiazolo[5,4-c]pyridine-5-carboxylic acid benzyl ester], the IC50 came out at 857 nM. Then `O=C(O)COc1ccc(F)cc1C1c2scnc2CCN1C(=O)OCc1ccccc1` (racemic) [Example 118, (±)-4-(2-Carboxymethoxy-5-fluoro-phenyl)-6,7-dihydro-4H-thiazolo[5,4-c]pyridine-5-carboxylic acid benzyl ester], with 8.3 nM; and `C[C@@H](Oc1ccc(Cl)cc1C1c2scnc2CCN1C(=O)OCc1ccccc1)C(=O)O` (mixture of isomers) [Example 119, (±)-4-[2-((R)-1-Carboxy-ethoxy)-5-chloro-phenyl]-6,7-dihydro-4H-thiazolo[5,4-c]pyridine-5-carboxylic acid benzyl ester], with 18.5 nM; and `C[C@H](Oc1ccc(Cl)cc1C1c2scnc2CCN1C(=O)OCc1ccccc1)C(=O)O` (mixture of isomers) [Example 120, (±)-4-[2-((S)-1-Carboxy-ethoxy)-5-chloro-phenyl]-6,7-dihydro-4H-thiazolo[5,4-c]pyridine-5-carboxylic acid benzyl ester], with 64.4 nM. Consider `O=C(O)COc1ccc(Cl)cc1[C@@H]1c2scnc2CCN1C(=O)[C@@H]1C[C@H]1c1cccc(F)c1` [Example 7, (4-Chloro-2-{(R)-5-[(1R,2R)-2-(3-fluoro-phenyl)-cyclopropanecarbonyl]-4,5,6,7-tetrahydro-thiazolo[5,4-c]pyridin-4-yl}-phenoxy)-acetic acid], for which the IC50 was 2.8 nM. Regarding `O=C(O)COc1ccc(Cl)cc1[C@@H]1c2scnc2CCN1C(=O)[C@@H]1C[C@H]1c1ccc(F)cc1` [Example 8, (4-Chloro-2-{(R)-5-[(1R,2R)-2-(4-fluoro-phenyl)-cyclopropanecarbonyl]-4,5,6,7-tetrahydro-thiazolo[5,4-c]pyridin-4-yl}-phenoxy)-acetic acid], the IC50 was found to be 5 nM. Take `O=C(O)COc1ccc(Cl)cc1[C@@H]1c2scnc2CCN1C(=O)[C@H]1C[C@@H]1c1ccc(F)cc1` [Example 9, (4-Chloro-2-{(R)-5-[(1S,2S)-2-(4-fluoro-phenyl)-cyclopropanecarbonyl]-4,5,6,7-tetrahydro-thiazolo[5,4-c]pyridin-4-yl}-phenoxy)-acetic acid]: the IC50 was found to be 462 nM. Molecule `Cc1nc2c(s1)[C@@H](c1cc(Cl)ccc1OCC(=O)O)N(C(=O)[C@@H]1C[C@H]1c1ccccc1)CC2` [Example 10, {4-Chloro-2-[(R)-2-methyl-5-((1R,2R)-2-phenyl-cyclopropanecarbonyl)-4,5,6,7-tetrahydro-thiazolo[5,4-c]pyridin-4-yl]-phenoxy}-acetic acid] yielded an IC50 of 1.5 nM.

Take `Cc1nc2c(s1)[C@H](c1cc(Cl)ccc1OCC(=O)O)N(C(=O)[C@@H]1C[C@H]1c1ccccc1)CC2` [Example 11, {4-Chloro-2-[(S)-2-methyl-5-((1R,2R)-2-phenyl-cyclopropanecarbonyl)-4,5,6,7-tetrahydro-thiazolo[5,4-c]pyridin-4-yl]-phenoxy}-acetic acid]: the IC50 was found to be 570 nM. `Cc1nc2c(s1)[C@H](c1cc(Cl)ccc1OCC(=O)O)N(C(=O)OCc1ccccc1)CC2` [Example 18, (S)-4-(2-Carboxymethoxy-5-chloro-phenyl)-2-methyl-6,7-dihydro-4H-thiazolo[5,4-c]pyridine-5-carboxylic acid benzyl ester] had an IC50 of 655 nM. The molecule `Cc1nc2c(s1)[C@@H](c1cc(Cl)ccc1OCC(=O)O)N(C(=O)OCc1ccccc1)CC2` [Example 19, (R)-4-(2-Carboxymethoxy-5-chloro-phenyl)-2-methyl-6,7-dihydro-4H-thiazolo[5,4-c]pyridine-5-carboxylic acid benzyl ester] yielded an IC50 of 4.71 nM. For `O=C(O)COc1ccc(Cl)cc1[C@@H]1c2scnc2CCN1C(=O)OCc1cc(F)ccc1F` [Example 58, (R)-4-(2-Carboxymethoxy-5-chloro-phenyl)-6,7-dihydro-4H-thiazolo[5,4-c]pyridine-5-carboxylic acid 2,5-difluoro-benzyl ester], the IC50 was 1 nM.

With `CCC(C)(C)COC(=O)N1CCc2ncsc2[C@H]1c1cc(Cl)ccc1OCC(=O)O` [Example 60, (R)-4-(2-Carboxymethoxy-5-chloro-phenyl)-6,7-dihydro-4H-thiazolo[5,4-c]pyridine-5-carboxylic acid 2,2-dimethyl-butyl ester], the IC50 stood at 2 nM. As to `O=C(O)COc1ccc(Cl)cc1[C@@H]1c2scnc2CCN1C(=O)OCc1ccc(F)cc1` [Example 61, (R)-4-(2-Carboxymethoxy-5-chloro-phenyl)-6,7-dihydro-4H-thiazolo[5,4-c]pyridine-5-carboxylic acid 4-fluoro-benzyl ester], the IC50 worked out at 1.2 nM.
